pKd: −log10 of the molar value.
Experiments:
[1] = Kinetic thiol consumption assay with model thiol glutathione; format: physicochemical; set-up: Rate constant with glutathione (k(GSH)): unit not given here; settings: for Rate constant with glutathione (k(GSH)): 500 μM ligand, 5 μM thiol, phosphate buffer pH 8; for Rate constant with Glutathione: Protein: Glutathione, cysteine position NA, in h-1
Summary of the method: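 Rate constants for acrylamide reaction with 5 μM glutathione come from first-order exponential fits of normalized fluorescence decay (ex 380, em 470 nm). Reactions run in degassed phosphate buffer at pH 8 containing TCEP beads, room temperature.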

[2] = molecular target: T1, human cyclin-dependent kinase 2 (Cdk2) (Homo sapiens, UniProt P24941); assay: Kinetic thiol consumption assay with wild type Cdk2 (C177); format: binding; set-up: key to Rate enhancement, Cdk2 WT: k(Cdk2) divided by k(model thiol); Rate constant with Cdk2 (k(Cdk2)): unit not given here; settings: for Rate constant with Cdk2 (k(Cdk2)): 500 μM ligand, 5 μM thiol, phosphate buffer pH 8; for Rate enhancement, Cdk2 WT: no additional mutations; for Rate constant with Cdk2 WT: Protein: Cdk2, cysteine position WT, in h^-1; for k(Cdk2)/k(Cdk2_mut) rate enhancement: model thiol Cdk2[C177A, F80C, K278C]; for k(Cdk2)/k(GSH) rate enhancement: model thiol glutathione
T1 construct: poly-histidine; made in house; host or cells: E. coli
Summary of the method: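 Thiol 5 μM (Cdk2 or model thiol), degassed phosphate buffer pH 8, TCEP beads 2% v/v. Plates incubated 1 h RT, ex/em 380/470 nm. First-order decay fit → rate constant; ratio Cdk2/model thiol = rate enhancement.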

Cdk2[C177A, F80C, K278C] = molecular target: T2, Cdk2[C177A, F80C, K278C] (Homo sapiens, UniProt P24941, C177A/F80C/K278C); assay: Kinetic thiol consumption assay with mutant Cdk2 as model thiol; format: binding; set-up: unit not given here; settings: 500 μM ligand, 5 μM thiol, phosphate buffer pH 8
T2 construct: poly-histidine; made in house; host or cells: E. coli
Summary of the method: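 Model thiol: His-tagged human Cdk2 C177A/F80C/K278C (two engineered surface cysteines), E. coli-expressed, 5 μM in degassed phosphate buffer pH 8 with immobilized TCEP beads (2% v/v). Fluorescence (ex/em 380/470 nm) followed over time at room temperature, normalized to DMSO/thiol control. First-order decay fit gives rate constants.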

Cdk2(C177A, F80C) = molecular target: T3, Cdk2(C177A, F80C) (Homo sapiens, UniProt P24941, C177A/F80C); assay: Kinetic thiol consumption assay with Cdk2 mutant F80C, incl. kobs versus concentration (Kd, k2); format: binding; set-up: key to Rate enhancement, Cdk2 F80C: Cdk2 rate constant divided by model-thiol rate constant; settings: for Rate enhancement, Cdk2 F80C / Rate constant with Cdk2 F80C: additional mutation C177A; for Rate constant with Cdk2 F80C: Protein: Cdk2, cysteine position F80C, in h^-1
T3 construct: poly-histidine; made in house; host or cells: E. coli
Summary of the method: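 His-tagged Cdk2(C177A/F80C) from E. coli or model thiol, 5 μM in degassed phosphate buffer pH 8 with TCEP beads, reacted with acrylamide ligands; fluorescence (ex/em 380/470 nm) normalized to DMSO control and fitted to first-order decay for kobs. Kd and k2 obtained from hyperbolic fit of kobs versus ligand concentration.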

Cdk2(H71C) (C177A) = molecular target: T4, Cdk2(H71C) (C177A) (Homo sapiens, UniProt P24941, C177A/H71C); assay: Kinetic thiol consumption assay with Cdk2 mutant H71C; format: binding; set-up: key to Rate enhancement, Cdk2 H71C: rate constant with Cdk2 ÷ rate constant with model thiol (fold); settings: additional mutation C177A; for Rate constant with Cdk2 H71C: Protein: Cdk2, cysteine position H71C, in h^-1
T4 construct: poly-histidine; made in house; host or cells: E. coli
Summary of the method: (§1)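 His-tagged single-surface-cysteine Cdk2 mutants (C177A background) from E. coli, 5 μM in degassed phosphate buffer pH 8, pre-treated with immobilized TCEP beads. Fluorescence (ex/em 380/470 nm) read after 1 h at room temperature, normalized to DMSO/thiol-only control; first-order decay fits gave rate constants, divided by model-thiol rate for rate enhancement.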

Cdk2(S276C) (C177A) = molecular target: T5, Cdk2(S276C) (C177A) (Homo sapiens, UniProt P24941, C177A/S276C); assay: Kinetic thiol consumption assay with Cdk2 mutant S276C; format: binding; set-up: key to Rate enhancement, Cdk2 S276C: rate constant with Cdk2 ÷ rate constant with model thiol (fold); settings: additional mutation C177A; for Rate constant with Cdk2 S276C: Protein: Cdk2, cysteine position S276C, in h^-1
T5 construct: poly-histidine; made in house; host or cells: E. coli
Summary of the method: as §1

Cdk2(N272C) (C177A) = molecular target: T6, Cdk2(N272C) (C177A) (Homo sapiens, UniProt P24941, C177A/N272C); assay: Kinetic thiol consumption assay with Cdk2 mutant N272C; format: binding; set-up: key to Rate enhancement, Cdk2 N272: rate constant with Cdk2 ÷ rate constant with model thiol (fold); settings: for Rate enhancement, Cdk2 N272: Cdk2 N272, additional mutation C177A; for Rate constant with Cdk2 N272C: Protein: Cdk2, cysteine position N272C, additional mutation C177A, in h^-1
T6 construct: poly-histidine; made in house; host or cells: E. coli
Summary of the method: as §1

Cdk2(T182C) (C177A) = molecular target: T7, Cdk2(T182C) (C177A) (Homo sapiens, UniProt P24941, C177A/T182C); assay: Kinetic thiol consumption assay with Cdk2 mutant T182C; format: binding; set-up: key to Rate enhancement, Cdk2 T182C: rate constant with Cdk2 ÷ rate constant with model thiol (fold); settings: additional mutation C177A; for Rate constant with Cdk2 T182C: Protein: Cdk2, cysteine position T182C, in h^-1
T7 construct: poly-histidine; made in house; host or cells: E. coli
Summary of the method: as §1

Cdk2(R122C) (C177A) = molecular target: T8, Cdk2(R122C) (C177A) (Homo sapiens, UniProt P24941, C177A/R122C); assay: Kinetic thiol consumption assay with Cdk2 mutant R122C; format: binding; set-up: key to Rate enhancement, Cdk2 R122C: rate constant with Cdk2 ÷ rate constant with model thiol (fold); settings: additional mutation C177A; for Rate constant with Cdk2 R122C: Protein: Cdk2, cysteine position R122C, in h-1
T8 construct: poly-histidine; made in house; host or cells: E. coli
Summary of the method: as §1

Cdk2(S181C) (C177A) = molecular target: T9, Cdk2(S181C) (C177A) (Homo sapiens, UniProt P24941, C177A/S181C); assay: Kinetic thiol consumption assay with Cdk2 mutant S181C; format: binding; set-up: key to Rate enhancement, Cdk2 S181C: rate constant with Cdk2 ÷ rate constant with model thiol (fold); settings: additional mutation C177A; for Rate constant with Cdk2 S181C: Protein: Cdk2, cysteine position S181C, in h^-1
T9 construct: poly-histidine; made in house; host or cells: E. coli
Summary of the method: as §1

[3] = hyperbolic fit of kobs against ligand concentration

| Structure (SMILES) | Rate constant with glutathione (k(GSH)) [1] | Rate constant with Glutathione [1] | Rate constant with Cdk2 (k(Cdk2)) [2] | Rate enhancement, Cdk2 WT [2] | Rate constant with Cdk2 WT [2] | k(Cdk2)/k(Cdk2_mut) rate enhancement [2] | k(Cdk2)/k(GSH) rate enhancement [2] | Rate constant with Cdk2[C177A, F80C, K278C] (k(Cdk2_mut)) (Cdk2[C177A, F80C, K278C]) | Rate enhancement, Cdk2 F80C (Cdk2(C177A, F80C)) | Rate enhancement, Cdk2 H71C (Cdk2(H71C) (C177A)) | Rate enhancement, Cdk2 S276C (Cdk2(S276C) (C177A)) | Rate constant with Cdk2 S276C (Cdk2(S276C) (C177A)) | Rate enhancement, Cdk2 N272 (Cdk2(N272C) (C177A)) | Rate constant with Cdk2 N272C (Cdk2(N272C) (C177A)) | Rate enhancement, Cdk2 T182C (Cdk2(T182C) (C177A)) | Rate constant with Cdk2 T182C (Cdk2(T182C) (C177A)) | Rate enhancement, Cdk2 R122C (Cdk2(R122C) (C177A)) | Rate constant with Cdk2 R122C (Cdk2(R122C) (C177A)) | Rate enhancement, Cdk2 S181C (Cdk2(S181C) (C177A)) | Rate constant with Cdk2 S181C (Cdk2(S181C) (C177A)) | also measured |
| --- | --- | --- | --- | --- | --- | --- | --- | --- | --- | --- | --- | --- | --- | --- | --- | --- | --- | --- | --- | --- | --- |
| C=CC(=O)Nc1ccc(-c2ncccn2)cc1 [CA-037] | 0.01523 | 0.01516 | 0.05015 | 3.308 | 0.05015 | 0.2569 | 3.293 | 0.1952 | 63.59 | 1.964 | 1.763 | 0.02673 | 1.739 | 0.02636 | 12.3 | 0.1865 | 0.9697 | 0.0147 | 1.495 | 0.02267 | hit classification against Cdk2(F80C, C177A) (Cdk2(C177A, F80C)): hit ligands; Rate constant with Cdk2 F80C (Cdk2(C177A, F80C)): 0.964; kobs (Cdk2(C177A, F80C); [CA37] 0.02 mM): 0.00007107 min⁻¹; kobs (Cdk2(C177A, F80C); [CA37] 0.05 mM): 0.000271 min⁻¹; kobs (Cdk2(C177A, F80C); [CA37] 0.1 mM): 0.0006704 min⁻¹; kobs (Cdk2(C177A, F80C); [CA37] 0.2 mM): 0.001313 min⁻¹; kobs (Cdk2(C177A, F80C); [CA37] 0.35 mM): 0.002029 min⁻¹; kobs (Cdk2(C177A, F80C); [CA37] 0.5 mM): 0.002372 min⁻¹; kobs (Cdk2(C177A, F80C); [CA37] 1 mM): 0.004177 min⁻¹; kobs (Cdk2(C177A, F80C); [CA37] 2 mM): 0.005626 min⁻¹; pKd (Cdk2(C177A, F80C); [3]): 2.92; k2 (Cdk2(C177A, F80C); [3]): 0.009427 min⁻¹; Rate constant with Cdk2 H71C (Cdk2(H71C) (C177A)): 0.02977 |
| C=CC(=O)NCC1CN(C2CC2)CCO1 (stereo not shown) [CA-038] | 0.0065 | 0.01131 | 0.00332 | 0.5218 | 0.005901 | 0.9623 | 0.5101 | 0.00345 | 0 | 0.8254 | 0.5828 | 0.006591 | 0.592 | 0.006696 | 1.744 | 0.01973 | 0.3691 | 0.004175 | 0.4715 | 0.005333 | Rate constant with Cdk2 H71C (Cdk2(H71C) (C177A)): 0.009335 |
| C=CC(=O)N1CCC2(CC1)CC2C(=O)OC (stereo not shown) [CA-039] | 0.00141 | 0.002035 | 0.00187 | 0.2802 | 0.0005702 | 0.6155 | 1.327 | 0.00304 | 0 | 0 | 1.14 | 0.002319 | 0.7499 | 0.001526 | 1.425 | 0.0029 | 0.8889 | 0.001809 | 0.6334 | 0.001289 |  |
| C=CC(=O)Nc1[nH]nc(C2CC2)c1-c1ccc2c(c1)OCO2 [CA-041] | 0.5441 | 0.5506 | 1.146 | 2.081 | 1.146 | 0.5929 | 2.106 | 1.933 | 0 | 0.007207 | 0.0064 | 0.003524 | 0.008585 | 0.004727 | 0.8554 | 0.471 | 0.003956 | 0.002178 | 0.005756 | 0.003169 | Rate constant with Cdk2 H71C (Cdk2(H71C) (C177A)): 0.003968 |
| C=CC(=O)N1CCc2cc(-c3cccc(F)c3)ccc21 [CA-042] | 0.00825 | 0.01463 | 0.04257 | 2.91 | 0.04257 | 0.3151 | 5.157 | 0.1351 | 0.4287 | 0.5064 | 0.5636 | 0.008245 | 0.09535 | 0.001395 | 5.547 | 0.08115 | 0.1215 | 0.001778 | 0.3187 | 0.004663 | Rate constant with Cdk2 F80C (Cdk2(C177A, F80C)): 0.006272; Rate constant with Cdk2 H71C (Cdk2(H71C) (C177A)): 0.007409 |
| C=CC(=O)NC1(c2noc(C3CC3)n2)CCCC1 [CA-044] | 0.00557 | 0.008146 | 0.00269 | 0.3307 | 0.002694 | 1.749 | 0.4838 | 0.00154 | 0 | 0 | 0.1116 | 0.0009087 | 0 |  | 0.2903 | 0.002365 | 0.2302 | 0.001875 | 0.1134 | 0.0009239 |  |

Reference: patent US11415579B2, “Assay for measuring a rate of reaction between a target and a ligand candidate” (Imperial College Innovations Ltd., priority 2016, dated 2022)
